Legend:
IL-6 = assay: hPBMC membrane-monocyte contact bioassay: IL-6; type: cell-based; settings: Homo sapiens, monocytes, 24 h, read-out: inhibition of activated hPBMC mediated IL-6 production
Text: The assay was designed as in reference, Immunology Letters, 117, 114-118, (2008), the disclosure of which is incorporated by reference for the teaching of the assay. Activated T cell contact-mediated monocyte activation, leading to the production of proinflammatory cytokines (e.g., TNF-α, IL-6), contributes to the pathogenesis of chronic inflammatory diseases including rheumatoid arthritis.
6-well plates (Nunc, USA) were coated with Goat anti-Mouse IgG, Fc (Chemicon, USA) at a concentration of 16.5 μL/mL in coating buffer ([…] NaHCO3, 3.56 g Na2CO3, pH 9.5).
The plates were incubated overnight at 4° C. under sterile conditions. […]
Following incubation, hPBMCs in separate wells of the 6-well plate were harvested, pooled together, and centrifuged. […] The pellet of hPBMC membranes was resuspended in lysis buffer (Sigma, USA) and the protein concentration was determined by the method of Bradford (Sigma, USA).
100 μL monocytes per well at 5×10^5 cells/mL were added to the 96-well plate (Nunc, USA) and cultured for 48 h at 37° C. […] Supernatants were collected after 24 h and TNF-α and IL-6 production was measured using OptiEIA ELISA sets, (BD BioSciences, USA). […]

MyD88 = assay: Gene expression profile using RTQ-PCR: MyD88; type: cell-based, human; settings: 3 μM
Protocol: The effect of the compound of example 7 was measured in stimulated untreated cells from the monocytic cell line (THP-1), human monocytes and synovial cells from rheumatoid arthritis patient. The effect of the compound in the THP-1 cell line was measured in terms of gene expression and was expressed as fold changes as compared to the cell stimulated control with no drug treatment.
THP-1 cells, human monocytes and synovial cells were treated with compound of example 7 or vehicle (0.5% DMSO). Total RNA isolation using a commercial RNA extraction kit (Qiagen Corporation, Germany) The first-strand cDNA was synthesized from total RNA using first strand cDNA synthesis kit from Invitrogen Corporation (California, USA). This was followed by real time quantitative polymerase chain reaction (RTQ PCR) using gene specific primers and standard thermal program of initial denaturation at 95° C. for 5 min and cycles of 95° C. for 10 seconds, followed by 60° C. for 30 seconds (Realplex PCR machine from Eppendorf, Germany). Quantitative measurement of products made during PCR cycles was normalized against a housekeeping gene (Actin) and was used to measure the gene expression as fold changes as compared to respective control.

Compound: C/C=C/C(O)C(C)/C=C/C(=N\O)C(C)C(O)C(C)C1OC(=O)/C(OC)=C/C(C)=C/C(C)C(O)C(CC)C(O)C(C)C/C(C)=C/C=C/C1OC (centres unmarked) [Compound of example 7, (3Z,5E,13E,15E)-18-((5Z,6E,10E)-3,9-Dihydroxy-5-(hydroxymino)-4,8-dimethyldodeca-6,10-dien-2-yl)-9-ethyl-8,10-dihydroxy-3,17-dimethoxy-5,7,11,13-tetramethyl oxacyclooctadeca-3,5,13,15-tetraen-2-one]
- inhibition at 0.3 µM (IL-6; at 0.3 μM): 66%
- inhibition at 0.5 µM (IL-6; at 0.5 μM): 100%
- MyD88 gene expression (MyD88; Human monocytes, 3 h, ± SE, N = 3): −0.2 + 1.9 log fold change
- MyD88 gene expression (MyD88; Synovial cells, 12 h, N = 1): −0.5 log fold change
- MyD88 gene expression (MyD88; THP-1 cells, 12 h, ± SE, N = 3): −0.2 + 0.2 log fold change
